ChEMBL document CHEMBL1909046, “DrugMatrix in vitro pharmacology data”

Columns and labels:
[1] = DRUGMATRIX: Sodium/nucleoside co-transporter radioligand binding (ligand: nitrobenzylthioinosine); format: cell membranes, Cavia porcellus, Dunkin-Hartley, Cerebral cortex, Membrane; details: Not Active = under 50% inhibition at 10 µM
[2] = target: Beta-3 adrenergic receptor (Homo sapiens, UniProt P13945); assay: DRUGMATRIX: Adrenergic beta3 radioligand binding (ligand: [125I] Cyanopindolol); format: cell membranes, HEK293, Membrane; details: hek293; Not Active = under 50% inhibition at 10 µM
Beta-3 adrenergic receptor, sequence (P13945 whole entry): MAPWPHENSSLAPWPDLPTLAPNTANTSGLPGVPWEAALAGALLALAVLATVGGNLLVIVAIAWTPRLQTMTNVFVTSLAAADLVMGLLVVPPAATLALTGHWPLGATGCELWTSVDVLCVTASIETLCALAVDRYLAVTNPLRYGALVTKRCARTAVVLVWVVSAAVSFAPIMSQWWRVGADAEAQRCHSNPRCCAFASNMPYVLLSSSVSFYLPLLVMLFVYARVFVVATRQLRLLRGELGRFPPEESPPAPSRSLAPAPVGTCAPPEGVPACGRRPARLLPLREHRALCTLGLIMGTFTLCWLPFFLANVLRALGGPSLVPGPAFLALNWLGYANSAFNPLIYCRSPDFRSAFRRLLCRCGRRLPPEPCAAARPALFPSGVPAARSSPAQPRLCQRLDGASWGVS

[3] = target: Sodium-dependent noradrenaline transporter (Homo sapiens, UniProt P23975); assay: DRUGMATRIX: Norepinephrine Transporter radioligand binding (ligand: [125I] RTI-55); format: cell membranes, MDCK, Membrane; details: mdck; Not Active = under 50% inhibition at 10 µM
Sodium-dependent noradrenaline transporter, sequence (P23975 whole entry): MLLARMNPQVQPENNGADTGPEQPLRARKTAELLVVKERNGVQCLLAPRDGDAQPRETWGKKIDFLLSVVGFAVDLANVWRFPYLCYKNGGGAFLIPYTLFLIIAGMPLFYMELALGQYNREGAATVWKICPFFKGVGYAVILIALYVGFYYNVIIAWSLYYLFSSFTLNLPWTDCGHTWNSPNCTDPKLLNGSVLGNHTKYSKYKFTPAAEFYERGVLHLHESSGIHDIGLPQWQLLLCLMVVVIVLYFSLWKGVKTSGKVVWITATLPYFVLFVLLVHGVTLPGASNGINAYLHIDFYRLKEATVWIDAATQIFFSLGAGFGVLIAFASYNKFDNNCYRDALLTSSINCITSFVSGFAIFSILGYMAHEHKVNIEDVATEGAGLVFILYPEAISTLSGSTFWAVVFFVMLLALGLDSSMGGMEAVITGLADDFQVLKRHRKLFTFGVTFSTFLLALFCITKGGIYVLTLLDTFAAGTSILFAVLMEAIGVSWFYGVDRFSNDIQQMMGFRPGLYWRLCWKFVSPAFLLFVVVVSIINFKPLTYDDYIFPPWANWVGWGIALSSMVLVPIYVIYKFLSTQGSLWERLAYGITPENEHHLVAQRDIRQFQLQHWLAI

[4] = DRUGMATRIX: beta-Lactamase enzyme inhibition (substrate: Nitrocefin); design: species or system Bacillus cereus; details: Not Active = under 50% inhibition at 10 µM
[5] = target: 5-hydroxytryptamine receptor 2B (Homo sapiens, UniProt P41595); format: cell membranes, CHO-K1, Membrane; details: cho-k1; further: in other assays of this panel Not Active means under 50% inhibition at 10 µM
5-hydroxytryptamine receptor 2B, sequence (P41595 whole entry): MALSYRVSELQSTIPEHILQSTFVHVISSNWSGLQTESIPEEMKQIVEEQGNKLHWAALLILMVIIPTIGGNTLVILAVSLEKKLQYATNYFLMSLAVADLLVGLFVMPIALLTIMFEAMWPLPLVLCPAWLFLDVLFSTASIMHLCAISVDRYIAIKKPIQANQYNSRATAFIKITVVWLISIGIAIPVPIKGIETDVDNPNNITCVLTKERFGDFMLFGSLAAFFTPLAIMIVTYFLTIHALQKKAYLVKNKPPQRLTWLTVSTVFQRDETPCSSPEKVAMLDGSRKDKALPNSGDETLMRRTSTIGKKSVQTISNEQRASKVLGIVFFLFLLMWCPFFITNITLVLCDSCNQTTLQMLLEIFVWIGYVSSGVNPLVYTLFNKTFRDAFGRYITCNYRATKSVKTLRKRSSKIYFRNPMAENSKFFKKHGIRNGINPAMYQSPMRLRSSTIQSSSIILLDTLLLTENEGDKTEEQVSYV

[6] = target: 5-hydroxytryptamine receptor 6 (Homo sapiens, UniProt P50406); format: cell membranes, HeLa, Membrane; details: hela; further: in other assays of this panel Not Active means under 50% inhibition at 10 µM
5-hydroxytryptamine receptor 6, sequence (P50406 whole entry): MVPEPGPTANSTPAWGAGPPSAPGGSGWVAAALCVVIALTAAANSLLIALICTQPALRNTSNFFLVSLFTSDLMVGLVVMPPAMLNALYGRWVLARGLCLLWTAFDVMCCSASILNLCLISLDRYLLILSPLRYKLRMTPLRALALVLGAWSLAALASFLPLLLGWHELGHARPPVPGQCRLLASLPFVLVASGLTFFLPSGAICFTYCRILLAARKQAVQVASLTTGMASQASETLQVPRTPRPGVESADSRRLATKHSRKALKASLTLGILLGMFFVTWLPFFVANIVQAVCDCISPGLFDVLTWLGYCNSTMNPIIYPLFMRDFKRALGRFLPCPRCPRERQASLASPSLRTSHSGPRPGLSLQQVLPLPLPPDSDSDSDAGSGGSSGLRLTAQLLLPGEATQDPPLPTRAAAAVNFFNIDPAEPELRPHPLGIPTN

Thromboxane-A synthase = target: T1, Thromboxane-A synthase (Homo sapiens, UniProt P24557); assay: biochemical; format: tissue-based, Platelet; details: platelet;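 further: enzyme inhibition assay with PGH2 supplied as substrate; in other assays of this panel Not Active means under 50% inhibition at 10 µM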
T1 sequence (P24557 whole entry): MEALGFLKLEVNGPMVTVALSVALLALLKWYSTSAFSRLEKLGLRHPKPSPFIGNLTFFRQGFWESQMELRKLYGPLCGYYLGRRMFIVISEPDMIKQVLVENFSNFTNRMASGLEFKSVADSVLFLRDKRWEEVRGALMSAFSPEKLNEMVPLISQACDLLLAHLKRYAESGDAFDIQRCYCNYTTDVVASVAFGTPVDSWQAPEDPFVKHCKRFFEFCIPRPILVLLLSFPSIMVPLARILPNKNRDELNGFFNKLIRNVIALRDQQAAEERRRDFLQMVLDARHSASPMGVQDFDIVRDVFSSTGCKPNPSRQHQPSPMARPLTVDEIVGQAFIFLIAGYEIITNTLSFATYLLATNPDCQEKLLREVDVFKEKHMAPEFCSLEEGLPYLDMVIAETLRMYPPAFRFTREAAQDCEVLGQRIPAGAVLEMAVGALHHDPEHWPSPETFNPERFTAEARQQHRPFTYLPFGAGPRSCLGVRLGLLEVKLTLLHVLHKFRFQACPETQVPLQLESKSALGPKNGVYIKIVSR

[7] = target: T2, C-X-C chemokine receptor type 1 (Homo sapiens, UniProt P25024); further: in other assays of this panel Not Active means under 50% inhibition at 10 µM
T2 sequence (P25024 whole entry): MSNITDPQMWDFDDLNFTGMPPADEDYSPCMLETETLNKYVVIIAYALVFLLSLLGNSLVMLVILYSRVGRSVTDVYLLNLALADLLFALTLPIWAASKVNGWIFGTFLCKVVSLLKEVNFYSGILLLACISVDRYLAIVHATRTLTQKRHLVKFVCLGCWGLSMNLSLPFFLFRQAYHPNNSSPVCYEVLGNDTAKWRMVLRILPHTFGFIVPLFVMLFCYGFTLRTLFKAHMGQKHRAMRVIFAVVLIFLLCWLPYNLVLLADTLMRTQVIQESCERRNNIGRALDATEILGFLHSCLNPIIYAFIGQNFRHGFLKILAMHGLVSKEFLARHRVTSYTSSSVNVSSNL

D(3) dopamine receptor = D(3) dopamine receptor (Homo sapiens, UniProt P35462); assay: DRUGMATRIX: Dopamine D3 radioligand binding (ligand: [3H] Spiperone); format: cell membranes, CHO, Membrane; details: cho
D(3) dopamine receptor, sequence (P35462 whole entry): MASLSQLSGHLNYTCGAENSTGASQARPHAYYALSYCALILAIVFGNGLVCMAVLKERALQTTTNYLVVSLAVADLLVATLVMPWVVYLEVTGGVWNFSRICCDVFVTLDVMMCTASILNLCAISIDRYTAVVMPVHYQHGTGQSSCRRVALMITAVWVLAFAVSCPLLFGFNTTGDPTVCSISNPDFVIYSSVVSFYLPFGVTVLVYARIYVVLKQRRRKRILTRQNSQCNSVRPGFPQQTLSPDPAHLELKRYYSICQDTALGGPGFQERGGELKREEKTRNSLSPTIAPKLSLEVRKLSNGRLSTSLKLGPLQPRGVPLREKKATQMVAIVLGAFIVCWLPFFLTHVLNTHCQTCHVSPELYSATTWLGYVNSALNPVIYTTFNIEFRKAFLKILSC

D(4) dopamine receptor = target: T3, D(4) dopamine receptor (Homo sapiens, UniProt P21917); assay: DRUGMATRIX: Dopamine D4.2 radioligand binding (ligand: [3H] Spiperone); format: cell membranes, CHO-K1, Membrane; details: cho-k1; Not Active = under 50% inhibition at 10 µM
T3 sequence (P21917 whole entry): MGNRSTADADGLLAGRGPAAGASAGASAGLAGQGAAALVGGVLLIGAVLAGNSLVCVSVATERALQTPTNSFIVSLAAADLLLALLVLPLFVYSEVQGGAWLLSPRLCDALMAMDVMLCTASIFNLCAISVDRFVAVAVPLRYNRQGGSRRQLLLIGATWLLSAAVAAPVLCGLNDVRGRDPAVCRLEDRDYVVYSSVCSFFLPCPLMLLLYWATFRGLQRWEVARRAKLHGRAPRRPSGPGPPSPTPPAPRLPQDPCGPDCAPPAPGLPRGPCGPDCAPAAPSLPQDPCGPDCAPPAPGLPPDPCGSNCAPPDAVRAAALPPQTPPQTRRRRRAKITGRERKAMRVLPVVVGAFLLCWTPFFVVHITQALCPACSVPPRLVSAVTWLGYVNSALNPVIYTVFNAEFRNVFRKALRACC

[8] = DRUGMATRIX: GABAA, Chloride Channel, TBOB radioligand binding (ligand: [3H] TBOB); format: cell membranes, Rattus norvegicus, Wistar, Cerebral cortex, Membrane; details: Not Active = under 50% inhibition at 10 µM
[9] = DRUGMATRIX: Glutamate, AMPA radioligand binding (ligand: [3H] AMPA); format: cell membranes, Rattus norvegicus, Wistar, Cerebral cortex, Membrane; details: Not Active = under 50% inhibition at 10 µM
[10] = DRUGMATRIX: Glutamate, Kainate radioligand binding (ligand: [3H] Kainic acid); format: cell membranes, Rattus norvegicus, Wistar, Brain, Membrane; details: Not Active = under 50% inhibition at 10 µM
Glycine receptor = Glycine receptor (Rattus norvegicus, UniProt P22771+P24524+P07727+P20781); format: cell membranes, Wistar, Spinal cord, Membrane; further: in other assays of this panel Not Active means under 50% inhibition at 10 µM
Histamine H2 receptor = Histamine H2 receptor (Homo sapiens, UniProt P25021); format: cell membranes, CHO-K1, Membrane; details: cho-k1; further: in other assays of this panel Not Active means under 50% inhibition at 10 µM
Histamine H2 receptor, sequence (P25021 whole entry): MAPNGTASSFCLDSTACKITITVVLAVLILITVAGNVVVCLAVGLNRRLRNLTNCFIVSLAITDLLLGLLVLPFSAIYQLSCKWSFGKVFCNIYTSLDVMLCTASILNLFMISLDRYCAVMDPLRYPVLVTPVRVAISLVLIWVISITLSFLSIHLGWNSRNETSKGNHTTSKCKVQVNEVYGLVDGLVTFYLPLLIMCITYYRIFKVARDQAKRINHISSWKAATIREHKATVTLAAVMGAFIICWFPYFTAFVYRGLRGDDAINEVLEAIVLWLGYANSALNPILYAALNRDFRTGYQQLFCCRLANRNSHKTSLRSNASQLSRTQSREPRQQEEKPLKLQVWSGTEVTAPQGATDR

[11] = DRUGMATRIX: Imidazoline I2, Central radioligand binding (ligand: [3H] Idazoxan); format: cell membranes, Rattus norvegicus, Wistar, Cerebral cortex, Membrane; details: Not Active = under 50% inhibition at 10 µM
[12] = DRUGMATRIX: Platelet-Derived Growth Factor (PDGF) radioligand binding (ligand: [125I] PDGF); format: cell-based; details: nih3t3; Not Active = under 50% inhibition at 10 µM

Cc1c(-c2ccccc2)oc2c(C(=O)OCCN3CCCCC3)cccc2c1=O [FLAVOXATE]
Not Active: IC50 [1] | Ki [1] | IC50 [2] | IC50 [3] | IC50 [4] | Ki [4] | IC50 [5] | IC50 [6] | IC50 (Thromboxane-A synthase) | IC50 [7] | IC50 (D(3) dopamine receptor) | IC50 (D(4) dopamine receptor) | IC50 [8] | Ki [8] | IC50 [9] | Ki [9] | IC50 [10] | Ki [10] | IC50 (Glycine receptor) | IC50 (Histamine H2 receptor) | IC50 [11] | Ki [11] | IC50 [12] | Ki [12]

Nc1nc(=O)[nH]cc1F [FLUCYTOSINE]
Not Active: IC50 [1] | Ki [1] | IC50 [2] | IC50 [3] | IC50 [4] | Ki [4] | IC50 [5] | IC50 [6] | IC50 (Thromboxane-A synthase) | IC50 [7] | IC50 (D(3) dopamine receptor) | IC50 (D(4) dopamine receptor) | IC50 [8] | Ki [8] | IC50 [9] | Ki [9] | IC50 [10] | Ki [10] | IC50 (Glycine receptor) | IC50 (Histamine H2 receptor) | IC50 [11] | Ki [11] | IC50 [12] | Ki [12]

O=C1OC2(c3ccc(O)cc3Oc3cc(O)ccc32)c2ccccc21 [FLUORESCEIN]
Not Active: IC50 [1] | Ki [1] | IC50 [2] | IC50 [3] | IC50 [4] | Ki [4] | IC50 [5] | IC50 [6] | IC50 (Thromboxane-A synthase) | IC50 [7] | IC50 (D(3) dopamine receptor) | IC50 (D(4) dopamine receptor) | IC50 [8] | Ki [8] | IC50 [9] | Ki [9] | IC50 [10] | Ki [10] | IC50 (Glycine receptor) | IC50 (Histamine H2 receptor) | IC50 [11] | Ki [11] | IC50 [12] | Ki [12]

CC(=O)[C@@]1(O)CC[C@H]2[C@@H]3C[C@H](C)C4=CC(=O)C=C[C@]4(C)[C@@]3(F)[C@@H](O)C[C@@]21C [FLUOROMETHOLONE]
Not Active: IC50 [1] | Ki [1] | IC50 [2] | IC50 [3] | IC50 [4] | Ki [4] | IC50 [5] | IC50 [6] | IC50 (Thromboxane-A synthase) | IC50 [7] | IC50 (D(3) dopamine receptor) | IC50 (D(4) dopamine receptor) | IC50 [8] | Ki [8] | IC50 [9] | Ki [9] | IC50 [10] | Ki [10] | IC50 (Glycine receptor) | IC50 (Histamine H2 receptor) | IC50 [11] | Ki [11] | IC50 [12] | Ki [12]

O=c1[nH]cc(F)c(=O)[nH]1 [FLUOROURACIL]
Not Active: IC50 [1] | Ki [1] | IC50 [2] | IC50 [3] | IC50 [4] | Ki [4] | IC50 [5] | IC50 [6] | IC50 (Thromboxane-A synthase) | IC50 [7] | IC50 (D(3) dopamine receptor) | IC50 (D(4) dopamine receptor) | IC50 [8] | Ki [8] | IC50 [9] | Ki [9] | IC50 [10] | Ki [10] | IC50 (Glycine receptor) | IC50 (Histamine H2 receptor) | IC50 [11] | Ki [11] | IC50 [12] | Ki [12]
